Data on 1 compound can be found in US20230287234A1, “EDIBLE COATINGS FOR MAINTAINING FRUIT QUALITY” (The State of Israel, Ministry of Agriculture & Rural …, priority 2020, published 2023).

Entries after “also recorded” stand apart in the source; their conditions may differ.

For one assay, the system named is avocado fruit. In words: Chilling injury of coated avocados stored at optimal (5° C.) and sub-optimal (2° C.) temperature. The note with it: 21 d at 2° C. or 5° C., followed by one week at 22° C.; index 0-3. The format is in vivo, 'Ettinger' avocado. Here is the method:
Three series of experiments were conducted. In each experiment the coated avocados were compared with uncoated fruits. The first experiment included seven edible coating formulations: carboxymethyl cellulose (CMC) (1% w/v), methylcellulose (MC) (1% w/v), hydroxypropyl methylcellulose (HPMC) (1% w/v), chitosan (1% w/v), alginate (1% w/v), and CMC with stearic acid (CMC+SA) (1% w/v and 0.6% w/v, respectively). The second, and third experiments included five edible coating formulations including phenylalanine, chitosan, CMC+SA, chitosan with phenylalanine, and CMC+SA with phenylalanine. In experiments 1-2 each treatment group included 8 avocados kept in cardboard boxes. In these experiments the fruit were stored for 14 and 12 days respectively at 20° C. (shelf-life conditions). In experiment 3 each treatment group included 14 avocados kept in cardboard boxes. The formulations of the edible coatings were applied to the fruit using paintbrushes. […] Internal browning: Internal browning was determined by cutting each fruit for half, lengthwise, at the end of each experiment, and assessing the visual appearance of the fruit Internal browning. Internal browning was evaluated on a 0-3 scale, in which 0=no internal browning and 3=sever internal browning. […] Blackening and pitting of the skin surface, as well as internal browning, were assessed to measure chilling injury. […]

The subject of assay [1] is stem-end rot and side rot of avocado fruit. Nature of the assay: Effect of coatings with and without Phe on avocado decay (stem-end rot, side rot, total decay incidence). The format is in vivo, 'Fuerte' avocado. As to conditions: avocado stored 12 d at 22° C. Here is the method:
Three series of experiments were conducted. In each experiment the coated avocados were compared with uncoated fruits. The first experiment included seven edible coating formulations: carboxymethyl cellulose (CMC) (1% w/v), methylcellulose (MC) (1% w/v), hydroxypropyl methylcellulose (HPMC) (1% w/v), chitosan (1% w/v), alginate (1% w/v), and CMC with stearic acid (CMC+SA) (1% w/v and 0.6% w/v, respectively). The second, and third experiments included five edible coating formulations including phenylalanine, chitosan, CMC+SA, chitosan with phenylalanine, and CMC+SA with phenylalanine. In experiments 1-2 each treatment group included 8 avocados kept in cardboard boxes. In these experiments the fruit were stored for 14 and 12 days respectively at 20° C. (shelf-life conditions). In experiment 3 each treatment group included 14 avocados kept in cardboard boxes. […] Determination of decay incidences: Stem end rot (SER) was determined at the end of each experiment by assessing the visual appearance of the fruit stem end. SER was evaluated on a 0-3 scale, in which zero=no SER and three=severe SER. […] Side rot (Alternaria rot and anthracnose) was evaluated at the end of each experiment on a 0-3 scale, in which zero=no side rot and three=severe rot. […] Total decay incidences were determined by calculating the percentage of decayed fruit at the end of each experiment per treatment. […]

As to `N[C@@H](Cc1ccccc1)C(=O)O` [Phe, phenylalanine], the chilling injuries symptoms entry in the assay on avocado fruit was “reduced the appearance of chilling injuries”. Moreover, the “decay incidence and severity (stem-end rot and side rot)” value in assay [1] is “some effect on reducing fruit decay incidence and severity; also recorded: increased its resistance to postharvest decay”; in assay [1] (listed as Phenylalanine), “did not show clear protection effects”.
